{
  "source": "patent US9738634B2",
  "about": "“Heterocyclic amide compound and herbicide” (SYNGENTA PARTICIPATIONS AG, priority 2013, dated 2017)",
  "type_in_all_cases": "in vivo",
  "key": {"[1]": {"test_system": "wild oat", "test": "Test Example 4: weedkilling efficacy by foliar treatment; G: wild oat", "conditions": "treatment dosage 315 g/ha", "in_short": "(§1)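 Seeds are spot-sown into sterilized diluvial soil and covered with about 1.5 cm of soil. After 14 days' greenhouse growth at 25 to 30° C, plants are sprayed on stems and leaves with diluted emulsion at the stated g/ha rate, then scored at 3 weeks.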"}, "[2]": {"test_system": "green foxtail", "test": "Test Example 4: weedkilling efficacy by foliar treatment; E: green foxtail", "conditions": "treatment dosage 315 g/ha", "in_short": "as §1"}, "[3]": {"test_system": "birds-eye speedwell", "test": "Test Example 4: weedkilling efficacy by foliar treatment; p: birds-eye speedwell", "conditions": "treatment dosage 315 g/ha", "in_short": "as §1"}, "[4]": {"test_system": "barnyard grass", "test": "Test Example 2: weedkilling efficacy, growth period weed treatment in the submerged state; A: barnyard grass", "conditions": "treatment dosage 252 g/ha", "in_short": "(§2)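 Seedlings at 1-2 leaves in 4 cm-deep submerged alluvial soil received emulsion formulations on the water surface, dosed per hectare; effects were judged 3 weeks on.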"}, "[5]": {"test_system": "catchweed", "test": "Test Example 4: weedkilling efficacy by foliar treatment; O: catchweed", "conditions": "treatment dosage 315 g/ha", "in_short": "as §1"}, "[6]": {"test_system": "green foxtail", "test": "Test Example 3: weedkilling efficacy through soil treatment; E: green foxtail", "conditions": "treatment dosage 315 g/ha", "in_short": "(§3)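 Crop and weed responses were judged three weeks after a uniform surface spray of the water-diluted emulsion at the given g/ha rate. Seeds sat beneath about 1.5 cm of sterilized diluvial soil, and boxes stood in a greenhouse at 25 to 30° C.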"}, "[7]": {"test_system": "Italian ryegrass", "test": "Test Example 3: weedkilling efficacy through soil treatment; I: Italian ryegrass", "conditions": "treatment dosage 315 g/ha", "in_short": "as §3"}, "[8]": {"test_system": "fig-leafed goosefoot", "test": "Test Example 4: weedkilling efficacy by foliar treatment; M: fig-leafed goosefoot", "conditions": "treatment dosage 315 g/ha", "in_short": "as §1"}, "[9]": {"test_system": "transplanted rice", "test": "Test Example 1: preemergent weed treatment in the submerged state, effect on crop; a: transplanted rice", "conditions": "treatment dosage 252 g/ha", "in_short": "(§4)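 Pre-emergence paddy test: weed seeds sown in submerged alluvial soil (4 cm water), 2.5-leaf rice transplanted, water-diluted emulsion applied to water surface at sowing at stated g/ha. Scored at 3 weeks, greenhouse 25–30 °C.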"}, "[10]": {"test_system": "bulrush", "test": "Test Example 2: weedkilling efficacy, growth period weed treatment in the submerged state; B: bulrush", "conditions": "treatment dosage 252 g/ha", "in_short": "as §2"}, "[11]": {"test_system": "soybean", "test": "Test Example 4: foliar treatment, effect on crop; d: soybean", "conditions": "treatment dosage 315 g/ha", "in_short": "as §1"}, "[12]": {"test_system": "wild oat", "test": "Test Example 3: weedkilling efficacy through soil treatment; G: wild oat", "conditions": "treatment dosage 315 g/ha", "in_short": "as §3"}, "[13]": {"test_system": "Indian mallow", "test": "Test Example 4: weedkilling efficacy by foliar treatment; K: Indian mallow", "conditions": "treatment dosage 315 g/ha", "in_short": "as §1"}, "[14]": {"test_system": "corn", "test": "Test Example 4: foliar treatment, effect on crop; c: corn", "conditions": "treatment dosage 315 g/ha", "in_short": "as §1"}, "[15]": {"test_system": "crabgrass", "test": "Test Example 3: weedkilling efficacy through soil treatment; D: crabgrass", "conditions": "treatment dosage 315 g/ha", "in_short": "as §3"}, "[16]": {"test_system": "fig-leafed goosefoot", "test": "Test Example 3: weedkilling efficacy through soil treatment; M: fig-leafed goosefoot", "conditions": "treatment dosage 315 g/ha", "in_short": "as §3"}, "[17]": {"test_system": "wheat", "test": "Test Example 3: soil treatment, effect on crop; e: wheat", "conditions": "treatment dosage 315 g/ha", "in_short": "as §3"}, "[18]": {"test_system": "beet", "test": "Test Example 3: soil treatment, effect on crop; f: beet", "conditions": "treatment dosage 315 g/ha", "in_short": "as §3"}, "[19]": {"test_system": "chickweed", "test": "Test Example 4: weedkilling efficacy by foliar treatment; N: chickweed", "conditions": "treatment dosage 315 g/ha", "in_short": "as §1"}, "[20]": {"test_system": "birds-eye speedwell", "test": "Test Example 3: weedkilling efficacy through soil treatment; p: birds-eye speedwell", "conditions": "treatment dosage 315 g/ha", "in_short": "as §3"}, "[21]": {"test_system": "barnyard grass", "test": "Test Example 1: weedkilling efficacy, preemergent weed treatment in the submerged state; A: barnyard grass", "conditions": "treatment dosage 252 g/ha", "in_short": "as §4"}, "[22]": {"test_system": "black-grass", "test": "Test Example 3: weedkilling efficacy through soil treatment; H: black-grass", "conditions": "treatment dosage 315 g/ha", "in_short": "as §3"}, "[23]": {"test_system": "bulrush", "test": "Test Example 1: weedkilling efficacy, preemergent weed treatment in the submerged state; B: bulrush", "conditions": "treatment dosage 252 g/ha", "in_short": "as §4"}, "[24]": {"test_system": "oval-leafed pondweed", "test": "Test Example 2: weedkilling efficacy, growth period weed treatment in the submerged state; C: oval-leafed pondweed", "conditions": "treatment dosage 252 g/ha", "in_short": "as §2"}, "[25]": {"test_system": "black-grass", "test": "Test Example 4: weedkilling efficacy by foliar treatment; H: black-grass", "conditions": "treatment dosage 315 g/ha", "in_short": "as §1"}, "[26]": {"test_system": "oval-leafed pondweed", "test": "Test Example 1: weedkilling efficacy, preemergent weed treatment in the submerged state; C: oval-leafed pondweed", "conditions": "treatment dosage 252 g/ha", "in_short": "as §4"}, "[27]": {"test_system": "directly sown rice", "test": "Test Example 4: foliar treatment, effect on crop; b: directly sown rice", "conditions": "treatment dosage 315 g/ha", "in_short": "as §1"}, "[28]": {"test_system": "soybean", "test": "Test Example 3: soil treatment, effect on crop; d: soybean", "conditions": "treatment dosage 315 g/ha", "in_short": "as §3"}, "[29]": {"test_system": "redroot pigweed", "test": "Test Example 4: weedkilling efficacy by foliar treatment; L: redroot pigweed", "conditions": "treatment dosage 315 g/ha", "in_short": "as §1"}, "[30]": {"test_system": "chickweed", "test": "Test Example 3: weedkilling efficacy through soil treatment; N: chickweed", "conditions": "treatment dosage 315 g/ha", "in_short": "as §3"}, "[31]": {"test_system": "corn", "test": "Test Example 3: soil treatment, effect on crop; c: corn", "conditions": "treatment dosage 315 g/ha", "in_short": "as §3"}, "[32]": {"test_system": "crabgrass", "test": "Test Example 4: weedkilling efficacy by foliar treatment; D: crabgrass", "conditions": "treatment dosage 315 g/ha", "in_short": "as §1"}, "[33]": {"test_system": "redroot pigweed", "test": "Test Example 3: weedkilling efficacy through soil treatment; L: redroot pigweed", "conditions": "treatment dosage 315 g/ha", "in_short": "as §3"}, "[34]": {"test_system": "Indian mallow", "test": "Test Example 3: weedkilling efficacy through soil treatment; K: Indian mallow", "conditions": "treatment dosage 315 g/ha", "in_short": "as §3"}, "[35]": {"test_system": "Italian ryegrass", "test": "Test Example 4: weedkilling efficacy by foliar treatment; I: Italian ryegrass", "conditions": "treatment dosage 315 g/ha", "in_short": "as §1"}, "[36]": {"test_system": "wheat", "test": "Test Example 4: foliar treatment, effect on crop; e: wheat", "conditions": "treatment dosage 315 g/ha", "in_short": "as §1"}},
  "data": [
    {"smiles": "CC1=C(c2ccccc2)C(=O)N(C(C)(C)C(=O)Nc2ccnc(F)c2)CO1", "note": "[B-4-02]", "values": [
      {"measurement": "G (wild oat) weedkilling efficacy grade", "setting": "[1]", "value": "5 (weed kill ratio 90% or more, (practically complete withering))"},
      {"measurement": "E (green foxtail) weedkilling efficacy grade", "setting": "[2]", "value": "5 (weed kill ratio 90% or more, (practically complete withering))"},
      {"measurement": "P (birds-eye speedwell) weedkilling efficacy grade", "setting": "[3]", "value": "5 (weed kill ratio 90% or more, (practically complete withering))"},
      {"measurement": "A (barnyard grass) weedkilling efficacy grade", "setting": "[4]", "value": "3 (weed kill ratio 40% or more, less than 70%)"},
      {"measurement": "O (catchweed) weedkilling efficacy grade", "setting": "[5]", "value": "5 (weed kill ratio 90% or more, (practically complete withering))"},
      {"measurement": "E (green foxtail) weedkilling efficacy grade", "setting": "[6]", "value": "5 (weed kill ratio 90% or more, (practically complete withering))"},
      {"measurement": "I (Italian ryegrass) weedkilling efficacy grade", "setting": "[7]", "value": "5 (weed kill ratio 90% or more, (practically complete withering))"},
      {"measurement": "M (fig-leafed goosefoot) weedkilling efficacy grade", "setting": "[8]", "value": "4 (weed kill ratio 70% or more, less than 90%)"},
      {"measurement": "a (transplanted rice) effect on crop grade", "setting": "[9]", "value": "3 (weed kill ratio 40% or more, less than 70%)"},
      {"measurement": "B (bulrush) weedkilling efficacy grade", "setting": "[10]", "value": "5 (weed kill ratio 90% or more, (practically complete withering))"},
      {"measurement": "d (soybean) effect on crop grade", "setting": "[11]", "value": "4 (weed kill ratio 70% or more, less than 90%)"},
      {"measurement": "G (wild oat) weedkilling efficacy grade", "setting": "[12]", "value": "5 (weed kill ratio 90% or more, (practically complete withering))"},
      {"measurement": "K (Indian mallow) weedkilling efficacy grade", "setting": "[13]", "value": "3 (weed kill ratio 40% or more, less than 70%)"},
      {"measurement": "c (corn) effect on crop grade", "setting": "[14]", "value": "4 (weed kill ratio 70% or more, less than 90%)"},
      {"measurement": "D (crabgrass) weedkilling efficacy grade", "setting": "[15]", "value": "5 (weed kill ratio 90% or more, (practically complete withering))"},
      {"measurement": "M (fig-leafed goosefoot) weedkilling efficacy grade", "setting": "[16]", "value": "5 (weed kill ratio 90% or more, (practically complete withering))"},
      {"measurement": "e (wheat) effect on crop grade", "setting": "[17]", "value": "1 (weed kill ratio 5% or more, less than 20%)"},
      {"measurement": "f (beet) effect on crop grade", "setting": "[18]", "value": "3 (weed kill ratio 40% or more, less than 70%)"},
      {"measurement": "N (chickweed) weedkilling efficacy grade", "setting": "[19]", "value": "3 (weed kill ratio 40% or more, less than 70%)"},
      {"measurement": "P (birds-eye speedwell) weedkilling efficacy grade", "setting": "[20]", "value": "5 (weed kill ratio 90% or more, (practically complete withering))"},
      {"measurement": "A (barnyard grass) weedkilling efficacy grade", "setting": "[21]", "value": "5 (weed kill ratio 90% or more, (practically complete withering))"},
      {"measurement": "H (black-grass) weedkilling efficacy grade", "setting": "[22]", "value": "5 (weed kill ratio 90% or more, (practically complete withering))"},
      {"measurement": "B (bulrush) weedkilling efficacy grade", "setting": "[23]", "value": "5 (weed kill ratio 90% or more, (practically complete withering))"},
      {"measurement": "C (oval-leafed pondweed) weedkilling efficacy grade", "setting": "[24]", "value": "4 (weed kill ratio 70% or more, less than 90%)"},
      {"measurement": "H (black-grass) weedkilling efficacy grade", "setting": "[25]", "value": "5 (weed kill ratio 90% or more, (practically complete withering))"},
      {"measurement": "C (oval-leafed pondweed) weedkilling efficacy grade", "setting": "[26]", "value": "5 (weed kill ratio 90% or more, (practically complete withering))"},
      {"measurement": "b (directly sown rice) effect on crop grade", "setting": "[27]", "value": "5 (weed kill ratio 90% or more, (practically complete withering))"},
      {"measurement": "d (soybean) effect on crop grade", "setting": "[28]", "value": "1 (weed kill ratio 5% or more, less than 20%)"},
      {"measurement": "L (redroot pigweed) weedkilling efficacy grade", "setting": "[29]", "value": "4 (weed kill ratio 70% or more, less than 90%)"},
      {"measurement": "N (chickweed) weedkilling efficacy grade", "setting": "[30]", "value": "4 (weed kill ratio 70% or more, less than 90%)"},
      {"measurement": "c (corn) effect on crop grade", "setting": "[31]", "value": "4 (weed kill ratio 70% or more, less than 90%)"},
      {"measurement": "D (crabgrass) weedkilling efficacy grade", "setting": "[32]", "value": "5 (weed kill ratio 90% or more, (practically complete withering))"},
      {"measurement": "L (redroot pigweed) weedkilling efficacy grade", "setting": "[33]", "value": "5 (weed kill ratio 90% or more, (practically complete withering))"},
      {"measurement": "K (Indian mallow) weedkilling efficacy grade", "setting": "[34]", "value": "4 (weed kill ratio 70% or more, less than 90%)"},
      {"measurement": "I (Italian ryegrass) weedkilling efficacy grade", "setting": "[35]", "value": "5 (weed kill ratio 90% or more, (practically complete withering))"},
      {"measurement": "e (wheat) effect on crop grade", "setting": "[36]", "value": "0 (weed kill ratio 5% or less (practically no effect))"}
    ]}
  ]
}
